Results: patent publication US10426775B2, “Methods for treating Friedreich's ataxia with etravirine” (Fratagene Therapeutics srl, priority 2017, dated 2019)

Tests used:
[1] = test system: GM16214 and GM16215 lymphoblasts; assay: Cell viability (XTT) after H2O2 treatment of lymphoblasts; assay type: cell-based, human; conditions: 500 nM etravirine 24 h
Description: Cells were treated with etravirine 500 nM for 24 h, then transferred (40000 cells/100 ul/well) into 96-well tissue culture plates. Cultures were supplemented for 16 h with 12.5 μM, 25 μM and 50 μM H2O2 (Sigma-Aldrich). After H2O2 treatment, 1 mg/ml XTT (2,3-Bis-(2-Methoxy-4-Nitro-5-Sulfophenyl)-2H-Tetrazolium-5-Carboxanilide) (INVITROGEN™, Thermo Fisher Scientific, Waltham, Mass. USA) and 0.25% Phenazine methosulfate (PMS, Fisher Scientific, Thermo Fisher Scientific, Waltham, Mass. USA) were added (25 μL/well) and cells were incubated for additional 2 h. Results were expressed as the percentage of reduction of absorbance at 450 nm by calibration with the absorbance of the control (untreated) cells. […]
FIGS. 6A to 6E show how etravirine functionally can rescue frataxin deficiency in FRDA patient cells. […] Cell extracts were resolved on SDS-PAGE and analysed by western blot with anti-frataxin antibody and anti-tubulin as a loading control. […] Aconitase activity was measured spectrophotometrically at 340 nm as described in the Methods section. Data represent the average of three (C) or five (D) independent experiments±S.E.M. p-values were calculated with Student's t-test (*p<0.05) E): Lymphoblasts derived from FRDA patient (GM16214) or from the unaffected carrier parent (GM16215), were either treated with 500 nM etravirine for 24 hrs or with vehicle only. […]

frataxin = assay: Western blot of frataxin in lymphoblastoid cell lines derived from FRDA patients; assay type: cell-based, human; conditions: GM16214, 500 nM etravirine, 24 and 48 hours, compared with GM16215

**Q.** How did the “protection from H2O2-induced cell death” value ([1]; GM16214 patient lymphoblasts, then 12.5, 25, 50 μM H2O2 for 16 h) turn out when Cc1cc(C#N)cc(C)c1Oc1nc(Nc2ccc(C#N)cc2)nc(N)c1Br [etravirine] was run?
**A.** Its value is “significantly protects”.

**Q.** And the “cell viability after H2O2 in healthy control cells upon etravirine treatment” value ([1]; GM16215 lymphoblasts, then H2O2 for 16 h)?
**A.** The value was “no further improvement”.

**Q.** What about the “frataxin levels in FRDA cells during etravirine treatment” value (frataxin) of the same molecule?
**A.** Its value is “increase over time”.
